According to patent publication US20060069132A1, “Azolecarboxamide herbicides” (priority 2004, published 2006):

What was measured:
velvetleaf = assay: Test C pre-/postemergence herbicide test; assay type: in vivo, Abutilon theophrasti
How it was run: (§1)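 Emerged plants at the 1- to 4-leaf stage (2–18 cm), or freshly planted seeds, received test chemicals in a non-phytotoxic solvent mixture with surfactant. Response was visually scored against controls after 12 to 14 days in the greenhouse, on a 0 (no effect) to 100 (complete control) scale.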

large crabgrass = assay: Test C pre-/postemergence herbicide test; assay type: in vivo, Digitaria sanguinalis
How it was run: as §1

goosegrass = assay: Test C pre-/postemergence herbicide test; assay type: in vivo, Eleusine indica
How it was run: as §1

johnsongrass = assay: Test C pre-/postemergence herbicide test; assay type: in vivo, Sorghum halepense
How it was run: as §1

rice [1] = assay: Test C flooded paddy test; assay type: in vivo, Oryza sativa; settings: for Plant response rating, Rice: 500 g ai/ha, visual rating after 12 to 14 days
How it was run: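 Postemergence sprays applied to plants 2 to 18 cm tall (1- to 4-leaf stage); paddy species grown to 2-leaf stage under flooding. After 12 to 14 days in greenhouse, visual rating versus untreated controls on 0–100 scale (0 no effect, 100 complete control).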

pigweed = assay: Test C pre-/postemergence herbicide test; assay type: in vivo, Amaranthus retroflexus
How it was run: as §1

Surinam grass = assay: Test C pre-/postemergence herbicide test; assay type: in vivo, Urochloa decumbens
How it was run: as §1

kochia = assay: Test C pre-/postemergence herbicide test; assay type: in vivo, Kochia scoparia
How it was run: as §1

soybean = assay: Test C pre-/postemergence herbicide test; assay type: in vivo, Glycine max
How it was run: as §1

rice [2] = assay: Test B pre-/postemergence herbicide test; assay type: in vivo, Oryza sativa
How it was run: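 Plants compared with untreated controls 13–15 days post-treatment and given a visual 0–100 injury score. Applications: preemergence to seeds; postemergence at 1- to 4-leaf (2–18 cm); paddy species flooded, 2-leaf stage. Vehicle non-phytotoxic, surfactant included.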

[3] = 125 g ai/ha, scale 0 (no effect) to 100 (complete control), visual, 12 to 14 days, preemergence
[4] = 250 g ai/ha, scale 0 to 100 (0 no effect, 100 complete control), visual, 12 to 14 days, preemergence
[5] = Postemergence, 500 g ai/ha, scale 0 to 100
[6] = Postemergence, 250 g ai/ha, scale 0 to 100, 0 no effect, 100 complete control
[7] = Preemergence, 500 g ai/ha, scale 0 to 100, 0 no effect, 100 complete control
[8] = postemergence, 62 g ai/ha, scale 0 to 100
[9] = Postemergence, 125 g ai/ha, scale 0 to 100, 0 no effect, 100 complete control
[10] = 62 g ai/ha, scale 0 to 100 (0 no effect, 100 complete control)
[11] = 125 g ai/ha, scale of 0 to 100, 0 is no effect, 100 is complete control
[12] = 250 g ai/ha, scale of 0 to 100, 0 is no effect, 100 is complete control
[13] = scale 0 to 100 (0 no effect, 100 complete control)
[14] = preemergence, 125 g ai/ha, 0 to 100 scale, 0 is no effect, 100 is complete control
[15] = postemergence, 125 g ai/ha, scale 0 to 100
[16] = 62 g ai/ha, preemergence, scale 0 to 100
[17] = 250 g ai/ha, scale 0-100, preemergence
[18] = 500 g ai/ha, scale 0 to 100 (0 no effect, 100 complete control), visual, 12 to 14 days, preemergence

SMILES: CCNC(=O)c1cc(NC(=O)c2cc(C(C)(C)C)nn2CC)ccc1F [Compound 58]
- Plant response rating, Velvetleaf (velvetleaf; [3]): 100
- Plant response rating, Velvetleaf (velvetleaf; [4]): 100
- Velvetleaf plant response rating (velvetleaf; [5]): 60
- Plant response rating, Velvetleaf (velvetleaf; [6]): 35
- Velvetleaf plant response rating (velvetleaf; [7]): 100
- Plant response rating, Velvetleaf (velvetleaf; [8]): 10
- Plant response rating (0 = no effect, 100 = complete control), Crabgrass, Large (large crabgrass; 62 g ai/ha, preemergence): 90
- Plant response rating, Crabgrass, Large (large crabgrass; [3]): 95
- Plant response rating, Crabgrass, Large (large crabgrass; [4]): 95
- Crabgrass, Large plant response rating (large crabgrass; [5]): 30
- Plant response rating, Crabgrass, Large (large crabgrass; [9]): 5
- Plant response rating, Crabgrass, Large (large crabgrass; [6]): 15
- Crabgrass, Large plant response rating (large crabgrass; [7]): 95
- Plant response rating, Crabgrass, Large (large crabgrass; [8]): 5
- Plant response rating (0 = no effect, 100 = complete control), Goosegrass (goosegrass; 62 g ai/ha, preemergence): 90
- Plant response rating, Goosegrass (goosegrass; [3]): 95
- Plant response rating, Goosegrass (goosegrass; [4]): 95
- Goosegrass plant response rating (goosegrass; [5]): 30
- Plant response rating, Goosegrass (goosegrass; [9]): 5
- Plant response rating, Goosegrass (goosegrass; [6]): 10
- Goosegrass plant response rating (goosegrass; [7]): 95
- Plant response rating, Goosegrass (goosegrass; [8]): 0
- Plant response rating (0 = no effect, 100 = complete control), Johnsongrass (johnsongrass; 62 g ai/ha, preemergence): 70
- Plant response rating, Johnsongrass (johnsongrass; [3]): 80
- Plant response rating, Johnsongrass (johnsongrass; [4]): 90
- Johnsongrass plant response rating (johnsongrass; [5]): 10
- Plant response rating, Johnsongrass (johnsongrass; [9]): 0
- Plant response rating, Johnsongrass (johnsongrass; [6]): 5
- Johnsongrass plant response rating (johnsongrass; [7]): 100
- Plant response rating, Johnsongrass (johnsongrass; [8]): 0
- Rice plant response rating (rice [1]; [10]): 0
- Rice plant response rating (rice [1]; [11]): 35
- Rice plant response rating (rice [1]; [12]): 35
- Plant response rating, Rice (rice [1]; [13]): 75
- Plant response rating (0 = no effect, 100 = complete control), Pigweed (pigweed; 62 g ai/ha, preemergence): 100
- Plant response rating, Pigweed (pigweed; [3]): 100
- Plant response rating, Pigweed (pigweed; [4]): 100
- Pigweed plant response rating (pigweed; [5]): 85
- Plant response rating, Pigweed (pigweed; [6]): 70
- Pigweed plant response rating (pigweed; [7]): 100
- Plant response rating, Pigweed (pigweed; [8]): 60
- Plant response rating (0 = no effect, 100 = complete control), Surinam Grass (Surinam grass; 62 g ai/ha, preemergence): 10
- Plant response rating, Surinam Grass (Surinam grass; [3]): 55
- Plant response rating, Surinam Grass (Surinam grass; [4]): 80
- Surinam Grass plant response rating (Surinam grass; [5]): 25
- Surinam Grass plant response rating (Surinam grass; [7]): 100
- Plant response rating (0 = no effect, 100 = complete control), Kochia (kochia; 62 g ai/ha, preemergence): 95
- Plant response rating, Kochia (kochia; [3]): 95
- Plant response rating, Kochia (kochia; [4]): 95
- Kochia plant response rating (kochia; [5]): 85
- Plant response rating, Kochia (kochia; [9]): 80
- Plant response rating, Kochia (kochia; [6]): 80
- Kochia plant response rating (kochia; [7]): 100
- Plant response rating, Kochia (kochia; [8]): 75
- Plant response rating (0 = no effect, 100 = complete control), Soybean (soybean; 62 g ai/ha, preemergence): 0
- Plant response rating, Soybean (soybean; [3]): 5
- Plant response rating, Soybean (soybean; [4]): 25
- Soybean plant response rating (soybean; [5]): 90
- Plant response rating, Soybean (soybean; [6]): 80
- Soybean plant response rating (soybean; [7]): 40
- Plant response rating, Soybean (soybean; [8]): 15
- Rice plant response rating (rice [2]; Preemergence, 500 g ai/ha, scale 0 to 100): 80
- Plant response rating, Rice (rice [2]; [14]): 60

SMILES: CCOC(=O)c1cc(NC(=O)c2cc(C(C)(C)C)nn2CC)ccc1OC [Compound 96]
- Plant response rating, Velvetleaf (velvetleaf; [3]): 50
- Velvetleaf plant response rating (velvetleaf; [5]): 95
- Plant response rating, Velvetleaf (velvetleaf; [6]): 70
- Velvetleaf plant response rating (velvetleaf; [7]): 100
- Plant response rating, Velvetleaf (velvetleaf; [15]): 70
- Plant response rating, Velvetleaf (velvetleaf; [8]): 40
- Plant response rating (0 = no effect, 100 = complete control), Crabgrass, Large (large crabgrass; 62 g ai/ha, preemergence): 85
- Plant response rating, Crabgrass, Large (large crabgrass; [3]): 100
- Plant response rating, Crabgrass, Large (large crabgrass; [4]): 100
- Crabgrass, Large plant response rating (large crabgrass; [5]): 5
- Plant response rating, Crabgrass, Large (large crabgrass; [6]): 5
- Crabgrass, Large plant response rating (large crabgrass; [7]): 100
- Plant response rating, Crabgrass, Large (large crabgrass; [15]): 0
- Plant response rating, Crabgrass, Large (large crabgrass; [8]): 0
- Plant response rating (0 = no effect, 100 = complete control), Goosegrass (goosegrass; 62 g ai/ha, preemergence): 30
- Plant response rating, Goosegrass (goosegrass; [3]): 80
- Goosegrass plant response rating (goosegrass; [5]): 5
- Plant response rating, Goosegrass (goosegrass; [6]): 5
- Goosegrass plant response rating (goosegrass; [7]): 95
- Plant response rating, Goosegrass (goosegrass; [15]): 5
- Plant response rating, Goosegrass (goosegrass; [8]): 5
- Plant response rating (0 = no effect, 100 = complete control), Johnsongrass (johnsongrass; 62 g ai/ha, preemergence): 40
- Plant response rating, Johnsongrass (johnsongrass; [3]): 60
- Johnsongrass plant response rating (johnsongrass; [5]): 50
- Plant response rating, Johnsongrass (johnsongrass; [6]): 50
- Johnsongrass plant response rating (johnsongrass; [7]): 95
- Plant response rating, Johnsongrass (johnsongrass; [15]): 50
- Plant response rating, Johnsongrass (johnsongrass; [8]): 0
- Rice plant response rating (rice [1]; [10]): 40
- Rice plant response rating (rice [1]; [11]): 45
- Rice plant response rating (rice [1]; [12]): 70
- Plant response rating, Rice (rice [1]; [13]): 75
- Plant response rating (0 = no effect, 100 = complete control), Pigweed (pigweed; 62 g ai/ha, preemergence): 100
- Plant response rating, Pigweed (pigweed; [3]): 100
- Pigweed plant response rating (pigweed; [5]): 100
- Plant response rating, Pigweed (pigweed; [6]): 100
- Pigweed plant response rating (pigweed; [7]): 100
- Plant response rating, Pigweed (pigweed; [15]): 100
- Plant response rating, Pigweed (pigweed; [8]): 70
- Plant response rating (0 = no effect, 100 = complete control), Surinam Grass (Surinam grass; 62 g ai/ha, preemergence): 0
- Plant response rating, Surinam Grass (Surinam grass; [3]): 10
- Surinam Grass plant response rating (Surinam grass; [5]): 60
- Plant response rating, Surinam Grass (Surinam grass; [6]): 40
- Surinam Grass plant response rating (Surinam grass; [7]): 65
- Plant response rating, Surinam Grass (Surinam grass; [15]): 40
- Plant response rating, Surinam Grass (Surinam grass; [8]): 0
- Plant response rating (0 = no effect, 100 = complete control), Kochia (kochia; 62 g ai/ha, preemergence): 90
- Plant response rating, Kochia (kochia; [3]): 95
- Kochia plant response rating (kochia; [5]): 90
- Plant response rating, Kochia (kochia; [6]): 85
- Kochia plant response rating (kochia; [7]): 100
- Plant response rating, Kochia (kochia; [15]): 80
- Plant response rating, Kochia (kochia; [8]): 80
- Plant response rating (0 = no effect, 100 = complete control), Soybean (soybean; 62 g ai/ha, preemergence): 0
- Plant response rating, Soybean (soybean; [3]): 5
- Soybean plant response rating (soybean; [5]): 100
- Plant response rating, Soybean (soybean; [6]): 100
- Soybean plant response rating (soybean; [7]): 50
- Plant response rating, Soybean (soybean; [15]): 100
- Plant response rating, Soybean (soybean; [8]): 100
- Plant response rating, Rice (rice [2]; 500 g ai/ha, visual rating 0-100, 0 no effect, 100 complete control, preemergence): 70
- Plant response rating, Rice (rice [2]; [14]): 60

SMILES: CCn1nc(C2(C)CC2)cc1C(=O)Nc1cc(C(=O)N(C)C)ccc1F [Compound 299]
- Plant response rating, Velvetleaf (velvetleaf; [16]): 5
- Plant response rating, Velvetleaf (velvetleaf; [17]): 100
- Plant response rating, Velvetleaf (velvetleaf; [18]): 100
- Plant response rating, Crabgrass, Large (large crabgrass; [16]): 100
- Plant response rating, Crabgrass, Large (large crabgrass; [3]): 100
- Plant response rating, Crabgrass, Large (large crabgrass; [17]): 100
- Plant response rating, Crabgrass, Large (large crabgrass; [18]): 100
- Plant response rating, Goosegrass (goosegrass; [16]): 100
- Plant response rating, Goosegrass (goosegrass; [3]): 100
- Plant response rating, Goosegrass (goosegrass; [17]): 100
- Plant response rating, Goosegrass (goosegrass; [18]): 100
- Plant response rating, Johnsongrass (johnsongrass; [16]): 85
- Plant response rating, Johnsongrass (johnsongrass; [3]): 100
- Plant response rating, Johnsongrass (johnsongrass; [17]): 100
- Plant response rating, Johnsongrass (johnsongrass; [18]): 100
- Rice plant response rating (rice [1]; 62 g ai/ha, scale 0 to 100): 70
- Rice plant response rating (rice [1]; 125 g ai/ha, scale 0 to 100 (0 no effect, 100 complete control)): 80
- Rice plant response rating (rice [1]; [12]): 80
- Plant response rating, Rice (rice [1]; [13]): 85
- Plant response rating, Pigweed (pigweed; [16]): 100
- Plant response rating, Pigweed (pigweed; [3]): 100
- Plant response rating, Pigweed (pigweed; [17]): 100
- Plant response rating, Pigweed (pigweed; [18]): 100
- Plant response rating, Surinam Grass (Surinam grass; [16]): 75
- Plant response rating, Surinam Grass (Surinam grass; [17]): 100
- Plant response rating, Surinam Grass (Surinam grass; [18]): 100
- Plant response rating, Kochia (kochia; [16]): 100
- Plant response rating, Kochia (kochia; [3]): 100
- Plant response rating, Kochia (kochia; [17]): 100
- Plant response rating, Kochia (kochia; [18]): 100
- Plant response rating, Soybean (soybean; [16]): 55
- Plant response rating, Soybean (soybean; [17]): 90
- Plant response rating, Soybean (soybean; [18]): 95
- Rice plant response rating (0 to 100 scale) (rice [2]; 125 g ai/ha, 0 = no effect, 100 = complete control, preemergence): 80
- Plant response rating, Rice (rice [2]; 500 g ai/ha, visual rating, 0 = no effect, 100 = complete control, preemergence): 90
